# Laboratory results: article PMC6222820, “Synthesis of New Triarylpyrazole Derivatives Possessing Terminal Sulfonamide Moiety and Their Inhibitory Effects on PGE2 and Nitric Oxide Productions in Lipopolysaccharide-Induced RAW 264.7 Macrophages” (Molecules : A Journal of Synthetic Chemistry and Natural …, 2018)
# Legend:
# [1] = system: RAW 264.7 macrophages; assay: MTT assay for cell viability / cytotoxicity; format: cell-based; conditions: means ± SD of three independent experiments
# Description: In addition to NO inhibition, the cytotoxic activity of compounds 1a–i, 2a–i, 3a–h, and 4a–h in RAW 264.7 macrophages were measured using the 3-(4,5-dimethylthiazol-2-yl)-2,5-diphenyltetrazolium bromide (MTT) assay to check whether the effects on the production of NO was caused by nonspecific cytotoxicity.
# (§1) Cell culture and sample treatment were performed as reported in the literature. The 3-(4,5-dimethylthiazol-2-yl)-2,5-diphenyltetrazolium bromide (MTT) assay for cell viability followed the procedure previously described in the literature. Nitrite determination was carried as described in the literature, and the PGE2 assay was carried as previously described.
# [2] = system: LPS-induced RAW 264.7 macrophages; assay: Nitric oxide (NO) production inhibition in LPS-induced RAW 264.7 macrophages (nitrite determination); format: cell-based; conditions: for Nitric Oxide % Inhibition: LPS-induced RAW 264.7 macrophages
# Description: The ability of a certain molecule to inhibit the production of inflammatory mediator(s) is one of successful approach to treatment both chronic and acute inflammation.
# as §1
structure (smiles),measurement,setting,value
"COc1cccc(-c2nn(-c3ccccc3)cc2-c2ccnc(NCCNS(=O)(=O)c3ccc(C)cc3)c2)c1 [Compound 1f, N-(2-((4-(3-(3-Methoxyphenyl)-1-phenyl-1H-pyrazol-4-yl)pyridin-2-yl)amino)ethyl)-4-methyl benzenesulfonamide]",IC50,[1],291 ± 1.12 µM
same,Nitric Oxide % Inhibition,[2]; 1 µM,16.29 ± 0.10%
same,Nitric Oxide % Inhibition,[2]; 5 µM,26.54 ± 0.65%
same,Nitric Oxide % Inhibition,[2]; 10 µM,53.09 ± 2.10%
same,IC50,"[2]; nitric oxide production, means ± SD of three independent experiments, read-out: NO (IC50)",9.42 ± 0.12 µM
